In ChEMBL document CHEMBL4184254, “Novel SIRT1 activator MHY2233 improves glucose tolerance and reduces hepatic lipid accumulation in db/db mice” (Bioorg Med Chem Lett, 2018):
Active and inactive are the calls of the source. The calls are words filed in the database; no cut-off is given here.

What was measured:
[1] = system: Mus musculus; experiment: Effect on beta-oxidation related gene expression in C57BLKS/J-db/db mouse assessed as CPT1 mRNA expression at 5 mg/kg/day dosed via oral gavage for 4 weeks by qRT-PCR method; type: functional, organism-based
[2] = system: Mus musculus; experiment: Effect on beta-oxidation related gene expression in C57BLKS/J-db/db mouse assessed as ACOX1 mRNA expression at 5 mg/kg/day dosed via oral gavage for 4 weeks by qRT-PCR method; type: functional, organism-based
[3] = system: Mus musculus; experiment: Reduction in hepatic ACC mRNA expression in C57BLKS/J-db/db mouse at 5 mg/kg/day dosed via oral gavage for 4 weeks by qRT-PCR method; type: functional, organism-based
[4] = system: Mus musculus; experiment: Improvement in insulin resistance in C57BLKS/J-db/db mouse assessed as reduction in serum insulin level at 5 mg/kg/day dosed via oral gavage for 3 weeks by oral glucose tolerance test; type: functional, organism-based
[5] = system: Mus musculus; experiment: Activation of SIRT1 in C57BLKS/J-db/db mouse assessed as reduction in p53 acetylation at 5 mg/kg/day dosed via oral gavage for 4 weeks by Western blot method; type: functional, organism-based
[6] = system: Mus musculus; experiment: Effect on body weight in C57BLKS/J-db/db mouse at 5 mg/kg/day dosed via oral gavage for 30 days; type: ADME, organism-based; conditions: in vivo, 720 h
[7] = system: Mus musculus; experiment: Suppression of hepatic steatosis in C57BLKS/J-db/db mouse assessed as reduction in liver lipid droplets at 5 mg/kg/day dosed via oral gavage for 4 weeks by hematoxylin-eosin staining based assay; type: functional, organism-based
[8] = system: Mus musculus; experiment: Improvement in insulin resistance in C57BLKS/J-db/db mouse assessed as restoration of liver IRS1 Tyr465 phosphorylation at 5 mg/kg/day dosed via oral gavage for 3 weeks during oral glucose tolerance test by Western blot; type: functional, organism-based
[9] = system: Mus musculus; experiment: Reduction in hepatic triglyceride level in C57BLKS/J-db/db mouse at 5 mg/kg/day dosed via oral gavage for 4 weeks by colorimetric assay; type: functional, organism-based
[10] = system: Mus musculus; experiment: Improvement in insulin resistance in C57BLKS/J-db/db mouse assessed as restoration of liver Akt Ser473 phosphorylation at 5 mg/kg/day dosed via oral gavage for 3 weeks during oral glucose tolerance test by Western blot; type: functional, organism-based
[11] = system: Mus musculus; experiment: Reduction in hepatic SREBP-1c mRNA expression in C57BLKS/J-db/db mouse at 5 mg/kg/day dosed via oral gavage for 4 weeks by qRT-PCR method; type: functional, organism-based
[12] = system: Mus musculus; experiment: Improvement in insulin resistance in C57BLKS/J-db/db mouse assessed as change in glucose level at 5 mg/kg/day dosed via oral gavage for 3 weeks by oral glucose tolerance test; type: functional, organism-based
[13] = system: Mus musculus; experiment: Reduction in hepatic SREBP-1a mRNA expression in C57BLKS/J-db/db mouse at 5 mg/kg/day dosed via oral gavage for 4 weeks by qRT-PCR method; type: functional, organism-based
[14] = system: Mus musculus; experiment: Reduction in serum triglyceride level in C57BLKS/J-db/db mouse at 5 mg/kg/day dosed via oral gavage for 30 days by colorimetric assay; type: functional, organism-based
[15] = biological target: T1, NAD-dependent protein deacetylase sirtuin-1 (Homo sapiens) (UniProt Q96EB6); experiment: Activation of SIRT1 (unknown origin) assessed as increase in NAD-dependent deacetylase activity using fluoro-substrate peptide by fluorometric assay relative to resveratrol
T1 sequence (whole entry): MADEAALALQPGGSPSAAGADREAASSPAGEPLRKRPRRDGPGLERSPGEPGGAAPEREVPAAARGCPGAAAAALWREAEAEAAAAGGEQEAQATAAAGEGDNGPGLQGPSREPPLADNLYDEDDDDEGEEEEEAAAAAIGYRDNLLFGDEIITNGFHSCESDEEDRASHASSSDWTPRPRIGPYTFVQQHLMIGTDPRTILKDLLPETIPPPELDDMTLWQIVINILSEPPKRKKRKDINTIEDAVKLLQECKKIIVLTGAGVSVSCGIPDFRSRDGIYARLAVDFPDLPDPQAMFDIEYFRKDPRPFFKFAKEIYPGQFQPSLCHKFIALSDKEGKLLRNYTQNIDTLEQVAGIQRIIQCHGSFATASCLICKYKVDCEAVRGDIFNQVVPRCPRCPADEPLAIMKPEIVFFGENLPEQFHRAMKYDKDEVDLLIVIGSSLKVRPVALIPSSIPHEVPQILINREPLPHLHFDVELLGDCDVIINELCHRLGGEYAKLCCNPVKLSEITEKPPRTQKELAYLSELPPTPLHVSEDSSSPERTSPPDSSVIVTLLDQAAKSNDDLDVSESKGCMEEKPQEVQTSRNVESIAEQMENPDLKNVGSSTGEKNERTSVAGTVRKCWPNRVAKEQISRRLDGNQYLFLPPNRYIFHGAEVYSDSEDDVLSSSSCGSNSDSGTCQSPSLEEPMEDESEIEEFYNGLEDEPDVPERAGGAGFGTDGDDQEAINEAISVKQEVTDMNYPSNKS

[16] = system: Mus musculus; experiment: Effect on food intake in C57BLKS/J-db/db mouse at 5 mg/kg/day dosed via oral gavage for 30 days; type: ADME, organism-based; conditions: in vivo, 720 h
[17] = system: Mus musculus; experiment: Improvement in insulin resistance in C57BLKS/J-db/db mouse assessed as reduction in fasting serum glucose level at 5 mg/kg/day dosed via oral gavage for 3 weeks by oral glucose tolerance test; type: functional, organism-based
[18] = system: Mus musculus; experiment: Reduction in serum NEFA level in C57BLKS/J-db/db mouse at 5 mg/kg/day dosed via oral gavage for 30 days by colorimetric assay; type: functional, organism-based
[19] = system: Mus musculus; experiment: Reduction in hepatic FASN mRNA expression in C57BLKS/J-db/db mouse at 5 mg/kg/day dosed via oral gavage for 4 weeks by qRT-PCR method; type: functional, organism-based
[20] = system: Mus musculus; experiment: Reduction in serum total cholesterol level in C57BLKS/J-db/db mouse at 5 mg/kg/day dosed via oral gavage for 30 days by colorimetric assay; type: functional, organism-based

In the case of `O=C(Nc1ccccc1-c1nc2cc(CN3CCN(C4CCCCC4)CC3)ccc2o1)c1ccc2ccccc2c1`, the Activity [1] is reported as “inactive”, the Activity [2] is reported as “inactive” and the Activity [3] is reported as “Active”. The Activity [4] was “Active”, the Activity [5] was “Active” and the Activity [6] was “Non-Toxic”. The Activity [7] was “Active”, the Activity [8] was “Active” and the Activity [9] was “Active”. The Activity [10] was “Active”, the Activity [11] was “Active” and the Activity [12] was “Active”. For the same compound, the Activity [13] was “Active”, the Activity [14] was “Active” and the fold change (FC) [15] was 1.5. For the same compound, the Activity [16] was “Non-Toxic”, the Activity [17] was “Active” and the Activity [18] was “Active”. The Activity [19] was “Active” and the Activity [20] was “Active”.
